Earlier results in patent US20100136125A1, “METHOD OF TREATING INFLAMMATORY BOWEL DISEASE” (Jacobus Pharmaceutical Company, Inc., priority 2006, published 2010).
Like-named read-outs stand apart in the source and are kept apart here.

Key:
[1] = target: T1, thiopurine methyltransferase (TPMT) (Homo sapiens, UniProt P51580); details: in vitro kinetic studies; read-out: IC50, non-competitive inhibition of TPMT
T1 sequence (P51580 1-245): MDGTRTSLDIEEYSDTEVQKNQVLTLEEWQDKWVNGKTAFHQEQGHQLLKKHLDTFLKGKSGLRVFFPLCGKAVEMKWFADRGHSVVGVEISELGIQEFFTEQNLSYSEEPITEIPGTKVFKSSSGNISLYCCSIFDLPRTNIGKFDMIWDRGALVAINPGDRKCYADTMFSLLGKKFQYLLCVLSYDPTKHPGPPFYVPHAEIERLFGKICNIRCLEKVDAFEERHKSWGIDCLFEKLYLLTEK

[2] = children, 300 mg/kg/day in 5 equal doses
[3] = in vivo
[4] = tested on: active left-sided ulcerative colitis; details: 2 gram nightly retention enema, p<0.005 vs placebo
[5] = tested on: distal ulcerative colitis; details: enema 2 g bid, open-label
[6] = tested on: quiescent Crohn's ileocolitis; details: 1.5 g/d slow release, maintenance therapy
ulcerative colitis = details: topical
[7] = not given; remark: listed apart in the source
Crohn's disease [8] = details: in vivo
Crohn's disease [9] = tested on: Crohn's disease
[10] = dose 4.0 gm PASER, 2.6-2.8 gm salts

Nc1cccc(C(=O)O)c1O [3-ASA]
IC50 [1]: 99 µM

Nc1ccc(C(=O)O)c(O)c1 [4-ASA, 4-aminosalicylic acid]
IC50 [1]: 2600 µM
excreted in the urine (in vivo): ≤ 80%
half-life of free 4-ASA (renal disease): 30.8 min
dosage excreted in acetylated form (urine): ≥ 50%
half-life of free 4-ASA (without renal disease): 26.4 min
serum level after 4 hours [2]: 2-2.5 mg percent
serum level of 4-ASA 60 minutes after oral solution [2]: ≤ 120 micrograms/ml
MIC (tuberculosis; bacteriostatic): under 2 μg/ml
half-life [3]: 50 min
significant improvement in clinical, sigmoidoscopic and histologic variables after 8 weeks [4]: 83%
participants with complete resolution of symptoms and sigmoidoscopic abnormalities by 8 weeks [5]: 46%
additional participants experiencing improvement ([5]; 8 weeks): 31%
relapse rate after one year [6]: 36%
clinical improvement within 2 weeks (ulcerative colitis): 79%
histologic improvement within 2 weeks (ulcerative colitis): 44%
sigmoidoscopic improvement within 2 weeks (ulcerative colitis): 78%

Nc1ccc(O)c(C(=O)O)c1 [5-ASA, 5-aminosalicylic acid]
IC50 [1]: 1240 µM
anti-tuberculous activity (tuberculosis): no anti-tuberculous activity
relapse rate after one year [6]: 38%
clinical improvement within 2 weeks (ulcerative colitis): 79%
histologic improvement within 2 weeks (ulcerative colitis): 44%
sigmoidoscopic improvement within 2 weeks (ulcerative colitis): 78%

Nc1ccc(C(=O)O)c([O-])c1.Nc1ccc(C(=O)O)c([O-])c1.[Ca+2] [Ca++ PAS]
AOC0-∞ ([7]; in vivo): 326.83 µg·h/mL
Cmax ([7]; in vivo): 139.51 µg/mL
Tmax ([7]; in vivo): 61.2 min

Nc1ccc(C(=O)[O-])c(O)c1.[K+] [K+ PAS]
AOC0-∞ [7, 10]: 313.22 µg·h/mL
Cmax [7, 10]: 121.09 µg/mL
Tmax [7, 10]: 66 min

Nc1ccc(C(=O)[O-])c(O)c1.[Na+] [Na+ PAS]
AOC0-∞ ([7]; in vivo): 313.22 µg·h/mL
Cmax ([7]; in vivo): 155.44 µg/mL
Tmax ([7]; in vivo): 49.8 min

O=C(O)c1cc(/N=N/c2ccc(S(=O)(=O)Nc3ccccn3)cc2)ccc1O [sulfasalazine]
IC50 [1]: 78 µM

Acetyl-para-aminosalicylate [Ac-PAS]
half-life of the acetylated metabolite (normals): 51 min
half-life of the acetylated metabolite (uremic patients): 309 min

granulocyte-macrophage stimulating factor: granulocyte-macrophage stimulating factor studied in active Crohn's disease
time by which significant clinical activity is demonstrated (Crohn's disease [8]): ≤ 15 days

infliximab: TNF antagonist, chimeric monoclonal antibody cA2 to tumor necrosis factor α
remission rate (Crohn's disease [9]; at 4 weeks): 33%
response rate (Crohn's disease [9]; at 4 weeks): 65%
remission (CDAI<150 and IBDQ>170-190) (Crohn's disease [9]; by two weeks): 27%
response (decrease in CDAI≧70 points) (Crohn's disease [9]; by two weeks): 61%
